Laboratory results published in patent EP2951180B1, “2,6,7,8 SUBSTITUTED PURINES AS HDM2 INHIBITORS” (Merck Sharp & Dohme Corp., priority 2013, dated 2014).

What follows are molecules tested against T1, HDM2 (Homo sapiens, UniProt Q00987) (assay: FRET assay (HDM2 inhibition; method not described in this part)). Details: Table 1.
T1 construct: Thioredoxin (N); made in house; host or cells: E. coli strain BL21(DE3)Rosetta
Assay type: binding

T1 sequence (Q00987 17-125): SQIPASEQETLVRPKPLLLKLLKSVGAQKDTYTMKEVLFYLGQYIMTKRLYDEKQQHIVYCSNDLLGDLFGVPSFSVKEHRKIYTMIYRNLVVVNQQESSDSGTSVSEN

Row | SMILES | IC50
1 | CCOc1ccnc(-c2nc3nc(C(=O)O)nc(N[C@H](C)C4CCC4)c3n2Cc2ccc(C(F)(F)F)cc2)c1 [Example 1.43, 6-{[(1R)-1-cyclobutylethyl]amino}-8-(4-ethoxypyridin-2-yl)-7-[4-(trifluoromethyl)benzyl] - 7H-purine-2-carboxylic acid] | 11.8 nM
2 | Cc1cc(-c2nc3nc(C(=O)O)nc(N[C@H](C)C4CCC4)c3n2Cc2ccc(C(F)(F)F)cc2)n(C)n1 [Example 1.94, 6-{[(1R)-1-cyclobutylethyl]amino}-8-(1,3-dimethyl-1H-pyrazol-5-yl)-7-[4-(trifluoromethyl)benzyl]-7H-purine-2-carboxylic acid] | 173 nM
3 | CC(C)c1cccc(-c2nc3nc(C(=O)O)nc(N[C@H](C)C4CCC4)c3n2Cc2ccc(C(F)(F)F)cc2)n1 [Example 1.70, 6-{[(1R)-1-cyclobutylethyl]amino}-8-[6-(1-methylethyl)pyridin-2-yl]-7-[4-(trifluoromethyl)benzyl]-7H-purine-2-carboxylic acid] | 46.9 nM
4 | C[C@@H](Nc1nc(C(=O)O)nc2nc(-c3ccc4c(c3)OCCN4C)n(Cc3ccc(C(F)(F)F)cc3)c12)C1CCC1 [Example 1.125, 6-{[(1R)-1-cyclobutylethyl]amino}-8-(4-methyl-3,4-dihydro-2H-1,4-benzoxazin-7-yl)-7-[4-(trifluoromethyl)benzyl]-7H-purine-2-carboxylic acid] | 116 nM
5 | C[C@@H](Nc1nc(C(=O)O)nc2nc(-c3ncccc3-c3ccccc3)n(Cc3ccc(C(F)(F)F)cc3)c12)C1CCC1 [Example 1.75, 6-{[(1R)-1-cyclobutylethyl]amino}-8-(3-phenylpyridin-2-yl)-7-[4-(trifluoromethyl)benzyl]-7H-purine-2-carboxylic acid] | 6.12 nM
6 | COc1ccc2cc(-c3nc4nc(C(=O)O)nc(N[C@H](C)C5CCC5)c4n3Cc3ccc(C(F)(F)F)cc3)ccc2c1 [Example 1.133, 6-{[(1R)-1-cyclobutylethyl]amino}-8-(6-methoxynaphthalen-2-yl)-7-[4-(trifluoromethyl)benzyl]-7H-purine-2-carboxylic acid] | 73.3 nM
7 | CCC(C)c1ccnc(-c2nc3nc(C(=O)O)nc(N[C@H](C)C4CCC4)c3n2Cc2ccc(C(F)(F)F)cc2)c1 (single isomer, unassigned) [Example 1.14] | 3.65 nM
8 | C[C@@H](Nc1nc(C(=O)O)nc2nc(-c3cc(C4CCCCC4)ccn3)n(Cc3ccc(C(F)(F)F)cc3)c12)C1CCC1 [Example 1.56, 6-{[(1R)-1-cyclobutylethyl]amino}-8-(4-cyclohexylpyridin-2-yl)-7-[4-(trifluoromethyl)benzyl]-7H-purine-2-carboxylic acid] | 6.99 nM
9 | CC(C)c1ccnc(-c2nc3nc(C(=O)O)nc(N[C@H](C)C4CCC4)c3n2Cc2ccc(OC(F)(F)F)cc2)c1 [Example 1.72, 6-{[(1R)-1-cyclobutylethyl]amino}-8-[4-(1-methylethyl)pyridin-2-yl]-7-[4-(trifluoromethoxy)benzyl]-7H-purine-2-carboxylic acid] | 12.3 nM
10 | CCOc1ccc(C)cc1-c1nc2nc(C(=O)O)nc(N[C@H](C)C3CCC3)c2n1Cc1ccc(C(F)(F)F)cc1 [Example 1.138, 6-{[(1R)-1-cyclobutylethyl]amino}-8-(2-ethoxy-5-methylphenyl)-7-[4-(trifluoromethyl)benzyl]-7H-purine-2-carboxylic acid] | 15.8 nM
11 | C[C@@H](Nc1nc(C(=O)O)nc2nc(-c3cccc4c3CNC4)n(Cc3ccc(C(F)(F)F)cc3)c12)C1CCC1 [Example 1.61, 6-{[(1R)-1-cyclobutylethyl]amino}-8-(2,3-dihydro-1H-isoindol-4-yl)-7-[4-(trifluoromethyl)benzyl]-7H-purine-2-carboxylic acid] | 51.4 nM

Same assay, conditions: Table 2

Row | SMILES | IC50
12 | C[C@@H](Nc1nc(C(=O)O)nc2nc(-c3ccc(C(C)(C)C)cc3)n(Cc3ccc(C(F)(F)F)cc3)c12)C1CC1 [Example 2.32, 8-(4-tert-butylphenyl)-6-{[(1R)-1-cyclopropylethyl]amino}-7-[4-(trifluoromethyl)benzyl]-7H-purine-2-carboxylic acid] | 1950 nM
13 | C[C@@H](Nc1nc(C(=O)O)nc2nc(-c3ccccc3Cl)n(Cc3ccc(C(F)(F)F)cc3)c12)C1CC1 [Example 2.55, 8-(2-chlorophenyl)-6-{[(1R)-1-cyclopropylethyl]amino}-7-[4-(trifluoromethyl)benzyl]-7H-purine-2-carboxylic acid] | 98.3 nM
14 | C[C@@H](Nc1nc(C(=O)O)nc2nc(-c3ccccc3OC(F)(F)F)n(Cc3ccc(C(F)(F)F)cc3)c12)C1CC1 [Example 2.34, 6-{[(1R)-1-cyclopropylethyl]amino}-8-[2-(trifluoromethoxy)phenyl]-7-[4-(trifluoromethyl)benzyl]-7H-purine-2-carboxylic acid] | 21 nM
15 | C[C@@H](Nc1nc(C(=O)O)nc2nc(-c3ccc4c(c3)CCC4)n(Cc3ccc(C(F)(F)F)cc3)c12)C1CC1 [Example 2.74, 6-{[(1R)-1-cyclopropylethyl]amino}-8-(2,3-dihydro-1H-inden-5-yl)-7-[4-(trifluoromethyl)benzyl]-7H-purine-2-carboxylic acid] | 205 nM
16 | CCOc1cccc(-c2nc3nc(C(=O)O)nc(N[C@H](C)C4CC4)c3n2Cc2ccc(C(F)(F)F)cc2)c1 [Example 2.15, 6-{[(1R)-1-cyclopropylethyl]amino}-8-(3-ethoxyphenyl)-7-[4-(trifluoromethyl)benzyl]-7H-purine-2-carboxylic acid] | 304 nM
17 | Cc1ccc(-c2nc3nc(C(=O)O)nc(N[C@H](C)C4CC4)c3n2Cc2ccc(C(F)(F)F)cc2)c(C)c1 [Example 2.52, 6-{[(1R)-1-cyclopropylethyl]amino}-8-(2,4-dimethylphenyl)-7-[4-(trifluoromethyl)benzyl]-7H-purine-2-carboxylic acid] | 309 nM
18 | COc1cc(-c2nc3nc(C(=O)O)nc(N[C@H](C)C4CC4)c3n2Cc2ccc(C(F)(F)F)cc2)ccn1 [Example 2.71, 6-{[(1R)-1-cyclopropylethyl]amino}-8-(2-methoxypyridin-4-yl)-7-[4-(trifluoromethyl)benzyl]-7H-purine-2-carboxylic acid] | 589 nM
19 | CCc1ccccc1-c1nc2nc(C(=O)O)nc(N[C@H](C)C3CCC3)c2n1Cc1ccc(C(F)(F)F)cc1 [Example 2.81, 6-{[(1R)-1-cyclobutylethyl]amino} -8-(2-ethylphenyl)-7-[4-(trifluoromethyl)benzyl] - 7H-purine-2-carboxylic acid] | 18 nM
20 | C[C@@H](Nc1nc(C(=O)O)nc2nc(-c3ccc(Cl)c(Cl)c3)n(Cc3ccc(C(F)(F)F)cc3)c12)C1CCC1 [Example 2.76, 6-{[(1R)-1-cyclobutylethyl]amino}-8-(3,4-dichlorophenyl)-7-[4-(trifluoromethyl)benzyl]-7H-purine-2-carboxylic acid] | 20.4 nM
21 | C[C@@H](Nc1nc(C(=O)O)nc2nc(-c3cccc(Cl)c3)n(Cc3ccc(C(F)(F)F)cc3)c12)C1CCC1 [Example 2.40, 8-(3-chlorophenyl)-6-{[(1R)-1-cyclobutylethyl]amino}-7-[4-(trifluoromethyl)benzyl]-7H-purine-2-carboxylic acid] | 30 nM

Same assay, conditions: Table 3

Row | SMILES | IC50
22 | C[C@@H](Nc1nc(C(=O)O)nc2nc(-c3nccs3)n(Cc3ccc(C(F)(F)F)cc3)c12)C1CCC1 [Example 3.9, 6-{[(1R)-1-cyclobutylethyl]amino}-8-(1,3-thiazol-2-yl)-7-[4-(trifluoromethyl)benzyl] -7H-purine-2-carboxylic acid] | 7.86 nM

Same assay, conditions: Table 4

Row | SMILES | IC50
23 | Cc1ccc(OCCCO)c(-c2nc3nc(C(=O)O)nc(N[C@H](C)C4CC4)c3n2Cc2ccc(C#N)cc2)c1 [Example 4.16, (R)-7-(4-cyanobenzyl)-6-((1-cyclopropylethyl)amino)-8-(2-(3-hydroxypropoxy)-5-methylphenyl)-7H-purine-2-carboxylic acid] | 481 nM
24 | COCCOc1ccc(C)cc1-c1nc2nc(C(=O)O)nc(N[C@H](C)C3CCC3)c2n1Cc1ccc(Cl)cc1 [Example 4.8, (R)-7-(4-chlorobenzyl)-6-((1-cyclobutylethyl)amino)-8-(2-(2-methoxyethoxy)-5-methylphenyl)-7H-purine-2-carboxylic acid] | 55 nM
25 | Cc1ccc(OCCC(=O)O)c(-c2nc3nc(C(=O)O)nc(N[C@H](C)C4CC4)c3n2Cc2ccc(Cl)cc2)c1 [Example 4.11, (R)-8-(2-(2-carboxyethoxy)-5-methylphenyl)-7-(4-chlorobenzyl)-6-((1-cyclopropylethyl)amino)-7H-purine-2-carboxylic acid] | 312 nM

Same assay, conditions: Table 5

Row | SMILES | IC50
26 | Cc1cccc(-c2nc3nc(C(=O)O)nc(N[C@H](C)C4CCC4)c3n2Cc2ccc(C(F)(F)F)cc2F)c1 [Example 5.17, 6-{[(1R)-1-cyclobutylethyl]amino}-7-[2-fluoro-4-(trifluoromethyl)benzyl]-8-(3-methylphenyl)-7H-purine-2-carboxylic acid] | 74.3 nM
27 | CCc1ccc(Cn2c(-c3cccc(C)c3)nc3nc(C(=O)O)nc(N[C@H](C)C4CC4)c32)cc1 [Example 5.20, 6-{[(1R)-1-cyclopropylethyl]amino}-7-(4-ethylbenzyl)-8-(3-methylphenyl)-7H-purine-2-carboxylic acid] | 1200 nM
28 | Cc1cccc(-c2nc3nc(C(=O)O)nc(N[C@H](C)C4CC4)c3n2C(C)c2ccc(Cl)cc2)c1 (stereo partly drawn) [Example 5.1, 7-(1-(4-chlorophenyl)ethyl)-6-(((R)-1-cyclopropylethyl)amino)-8-(3-methylphenyl)-7H-purine-2-carboxylic acid] | 855 nM
29 | CCOc1ccccc1Cn1c(-c2cccc(C)c2)nc2nc(C(=O)O)nc(N[C@H](C)C3CCC3)c21 [Example 5.6, 6-{[(1R)-1-cyclobutylethyl]amino}-7-(2-ethoxybenzyl)-8-(3-methylphenyl)-7H-purine-2-carboxylic acid] | 1840 nM
30 | CCOc1ccc(C(F)(F)F)cc1Cn1c(-c2cccc(C)c2)nc2nc(C(=O)O)nc(N[C@H](C)C3CC3)c21 [Example 5.5, 6-{[(1R)-1-cyclopropylethyl]amino}-7-(2-ethoxy-5-(trifluoromethyl)benzyl)-8-(3-methylphenyl)-7H-purine-2-carboxylic acid] | 2740 nM
31 | Cc1cccc(-c2nc3nc(C(=O)O)nc(N[C@H](C)C4CCC4)c3n2Cc2ccc(Cl)cc2Cl)c1 [Example 5.11, 6-{[(1R)-1-cyclobutylethyl]amino}-7-(2,4-dichlorobenzyl)-8-(3-methylphenyl)-7H-purine-2-carboxylic acid] | 259 nM
